The structures appear in SMILES notation.

Experiment [1] deals with T1, recombinant human liver glycogen phosphorylase (HLGPa) (Homo sapiens, UniProt P06737).
T1 construct: made in house; host or cells: Sf9 insect cells (unpurified cell lysate used as enzyme solution)
T1 sequence (P06737 1-847): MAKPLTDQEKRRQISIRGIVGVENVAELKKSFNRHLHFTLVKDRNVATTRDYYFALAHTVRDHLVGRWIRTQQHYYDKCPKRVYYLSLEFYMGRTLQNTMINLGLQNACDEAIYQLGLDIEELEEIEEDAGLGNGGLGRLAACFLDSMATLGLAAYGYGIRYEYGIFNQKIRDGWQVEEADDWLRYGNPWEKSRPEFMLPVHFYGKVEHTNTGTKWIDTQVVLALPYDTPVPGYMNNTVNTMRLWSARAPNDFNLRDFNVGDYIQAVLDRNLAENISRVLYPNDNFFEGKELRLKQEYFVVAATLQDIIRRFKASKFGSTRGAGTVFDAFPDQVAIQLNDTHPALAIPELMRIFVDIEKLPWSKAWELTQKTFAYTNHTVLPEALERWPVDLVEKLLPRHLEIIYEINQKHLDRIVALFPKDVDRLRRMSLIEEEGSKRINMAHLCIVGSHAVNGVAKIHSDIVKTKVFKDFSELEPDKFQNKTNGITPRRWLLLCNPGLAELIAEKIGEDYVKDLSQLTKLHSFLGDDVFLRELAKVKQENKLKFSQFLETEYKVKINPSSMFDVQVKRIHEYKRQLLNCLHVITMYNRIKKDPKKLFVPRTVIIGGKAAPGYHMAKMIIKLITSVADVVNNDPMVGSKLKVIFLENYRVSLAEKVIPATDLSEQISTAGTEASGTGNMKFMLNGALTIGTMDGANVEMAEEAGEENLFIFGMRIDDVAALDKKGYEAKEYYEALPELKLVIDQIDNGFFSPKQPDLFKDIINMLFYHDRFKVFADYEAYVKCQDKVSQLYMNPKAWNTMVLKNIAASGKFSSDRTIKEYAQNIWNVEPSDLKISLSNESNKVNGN
Put plainly: Measurement of liver glycogen phosphorylase activity (enzyme inhibitory activity against HLGPa). The experiment is classed as biochemical. The conditions noted are these: Sf9 cell lysate expressing recombinant enzyme; reverse reaction (glycogen synthesis from G1-P), phosphate by malachite green, 60 min room temperature. In a few lines:
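Activity was run in the reverse, glycogen-synthesis direction, using Sf9 lysate expressing recombinant human liver glycogen phosphorylase (enzyme solution 80 μg/mL protein, pH 7.0). Substrate solution was Tris pH 7.2 with 1.25 mM glucose-1-phosphate, 2.5 mg/ml glycogen and 7.5 mM glucose, reacted 60 min at room temperature. Released phosphate was measured by malachite green A650, with % inhibition taken against DMSO control and no-enzyme blank.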

In experiment [2] the test system is db/db mice. The experiment is described as follows: Measurement of plasma glucose concentration in obesity type diabetes model db/db mice. It counts as in vivo. The conditions noted are these: Mus musculus, po; plasma glucose 1 and 3 hr after administration, after fasting for 4 hr; significant difference vs solvent group (Dunnett's test); read-out: Minimum effective dose db/db mouse. On the procedure: Measurement Method of Plasma Glucose Concentration
Using obesity type diabetes model db/db mice, the effect of the compound (1) of the present invention on glucose concentration in plasma was examined. The glucose concentration in the plasma of db/db mice (10-15 weeks of age) was measured, and the mice were grouped into 5 mice per group such that the average glucose concentration of plasma is leveled. After fasting for 4 hr, the test drug or a solvent (0.5% methyl cellulose) was orally administered to db/db mice, and plasma glucose concentration at 1 and 3 hr after the administration was measured. The hypoglycemic effect of the test drug was evaluated by detecting a significant difference every hour between the solvent administration group and the test drug administration group (Dunnett's test).

Consider `CS(=O)(=O)O.N=C(NNC(=O)c1cc2cc(Cl)ccc2[nH]1)c1ccccc1F` [Example 6-20, 5-chloro-1H-indole-2-carboxylic acid 2-((2-fluorophenyl)-imino-methyl)hydrazide methanesulfonate], for which, in experiment [1], the IC50 (usually the midpoint of a concentration-inhibition curve) was 110 nM. The minimal effective dose in experiment [2] was 3 mg/kg.

For the molecule `O=C(NN1C(=O)CCNC1=O)c1cc2cc(Cl)ccc2[nH]1` [Example 3, N-(2,4-dioxo-perhydropyrimidin-3-yl)-5-chloro-1H-indole-2-carboxamide], the IC50 in experiment [1] is over 100 nM. In experiment [2], the minimal effective dose is 10 mg/kg.

As for `Cc1ccc2[nH]c(C(=O)Nn3c(=O)[nH]c4cc(F)ccc4c3=O)cc2c1` [Example 2-24, 5-methyl-1H-indole-2-carboxylic acid (7-fluoro-1,2,3,4-tetrahydro-2,4-dioxoquinazolin-3-yl)amide], the IC50 in experiment [1] worked out at 17 nM. Besides, the minimal effective dose in experiment [2] came to 3 mg/kg.

Regarding `CS(=O)(=O)O.N=C(Cc1ccccc1)NNC(=O)c1cc2cc(Cl)ccc2[nH]1` [Example 6-21], the minimal effective dose in experiment [2] amounted to 10 mg/kg.

For `O=C(NN1C(=O)NC(c2ccc(F)cc2)C1=O)c1cc2cc(Cl)ccc2[nH]1` (stereo not drawn) [Example 4-16, 5-chloro-1H-indole-2-carboxylic acid (2,5-dioxo-4-(4-fluorophenyl)imidazolidin-1-yl)amide], the minimal effective dose in experiment [2] amounted to 10 mg/kg.

Turning to `COC(=O)Nc1ccccc1C(=O)NNC(=O)c1cc2cc(C)ccc2[nH]1` [Example 1-64, methyl (2-(2-(5-methyl-1H-indole-2-carbonyl)hydrazinocarbonyl)phenyl)carbamate], the IC50 in experiment [1] is over 100 nM.

In the case of `O=C(Nc1ccccc1C(=O)NNC(=O)c1cc2cc(Cl)ccc2[nH]1)OCc1ccccc1` [Example 1-110, benzyl (2-(2-(5-chloro-1H-indole-2-carbonyl)hydrazinocarbonyl)phenyl)carbamate], the IC50 in experiment [1] is 35 nM.

In the case of `O=C(NNC(=O)c1ccc(Cl)s1)c1cc2cc(Cl)ccc2[nH]1` [Example 1-85, 5-chlorothiophene-2-carboxylic acid 2-(5-chloro-1H-indole-2-carbonyl)hydrazide], the IC50 in experiment [1] worked out at 430 nM.

On to `O=C(NNC(=O)c1cc2cc(Cl)ccc2[nH]1)Nc1ccc(F)cc1` [Example 5-7, 5-chloro-1H-indole-2-carboxylic acid 2-((4-fluorophenyl)aminocarbonyl)hydrazide], for which, in experiment [1], the IC50 amounted to 88 nM.

For the molecule `N[C@H](C(=O)NNC(=O)c1cc2cc(Cl)ccc2[nH]1)c1ccccc1` [Example 5-18, 5-chloro-1H-indole-2-carboxylic acid 2-((2S)-2-amino-2-phenylacetyl)hydrazide], the IC50 in experiment [1] is over 100 nM.

Regarding `O=C(NNC(=O)c1cc2cc(Cl)ccc2[nH]1)Nc1ccccc1F` [Example 5-5, 5-chloro-1H-indole-2-carboxylic acid 2-((2-fluorophenyl)aminocarbonyl)hydrazide], in experiment [1], the IC50 came to 79 nM.

Regarding `CN(C)C(=O)COc1ccccc1C(=O)NNC(=O)c1cc2cc(Cl)ccc2[nH]1` [Example 1-52, 2-(2-(5-chloro-1H-indole-2-carbonyl)hydrazinocarbonyl)phenoxy-N,N-dimethylacetamide], the IC50 in experiment [1] was determined as 91 nM.

In the case of `O=C(NNC(=O)c1cc2cc(Cl)ccc2[nH]1)c1cn[nH]c1` [Example 1-104, 1H-pyrazole-4-carboxylic acid 2-(5-chloro-1H-indole-2-carbonyl)hydrazide], the IC50 in experiment [1] is 21 nM.

For `O=C(NN1CCN(c2ccccc2)C1=O)c1cc2cc(Cl)ccc2[nH]1` [Example 4-5, N-(2-oxo-1-phenylimidazolidin-3-yl)-5-chloro-1H-indole-2-carboxamide], the IC50 in experiment [1] was over 100 nM.

As for `COC(=O)Nc1ccccc1C(=O)NNC(=O)c1cc2cc(F)ccc2[nH]1` [Example 1-105, methyl (2-(2-(5-fluoro-1H-indole-2-carbonyl)hydrazinocarbonyl)phenyl)carbamate], the IC50 in experiment [1] was determined as 87 nM.

In the case of `CC(C)(COC(=O)Nc1ccccc1C(=O)NNC(=O)c1cc2cc(Cl)ccc2[nH]1)C(=O)O` [Example 1-76, 3-((2-(2-(5-chloro-1H-indole-2-carbonyl)hydrazinocarbonyl)phenyl)carbamoyloxy)-2,2-dimethylpropionic acid], in experiment [1], the half-maximal inhibitory concentration (IC50) stood at 37 nM.

On to `O=C(NNC(=O)c1cc2cc(Cl)ccc2[nH]1)c1cccc(Cl)c1` [Example 1-20, 3-chlorobenzoic acid 2-(5-chloro-1H-indole-2-carbonyl)hydrazide], for which, in experiment [1], the IC50 turned out to be 35 nM.

As to `N=C(NNC(=O)c1cc2cc(Cl)ccc2[nH]1)c1ccc(F)c(F)c1` [Example 6-23, 5-chloro-1H-indole-2-carboxylic acid 2-((3,4-difluorophenyl)-imino-methyl)hydrazide methanesulfonate], in experiment [1], the IC50 turned out to be 67 nM.

On to `O=C(NN1C(=O)[C@@H]2CCCN2C1=O)c1cc2cc(Cl)ccc2[nH]1` [Example 4-7, 5-chloro-1H-indole-2-carboxylic acid ((4S)-1,3-dioxo-perhydropyrrolo[1,2-c]imidazol-2-yl)amide], for which the IC50 in experiment [1] is over 100 nM.

As to `Cc1cccc(N)c1C(=O)NNC(=O)c1cc2cc(Cl)ccc2[nH]1` [Example 1-98, 2-amino-6-methylbenzoic acid 2-(5-chloro-1H-indole-2-carbonyl)hydrazide], the IC50 in experiment [1] is 87 nM.

Consider `COC(=O)Cn1c(=O)n(NC(=O)c2cc3cc(Cl)ccc3[nH]2)c(=O)c2ccccc21` [Example 2-22, 2-(3-((5-chloro-1H-indole-2-carbonyl)amino)-1,2,3,4-tetrahydro-2,4-dioxoquinazolin-1-yl)acetic acid methyl ester], for which, in experiment [1], the IC50 turned out to be 31 nM.

Regarding `O=C(NNC(=O)c1cc2cc(Cl)ccc2[nH]1)c1ccc[nH]1` [Example 1-80, 1H-pyrrole-2-carboxylic acid 2-(5-chloro-1H-indole-2-carbonyl)hydrazide], the IC50 in experiment [1] stood at 400 nM.

Regarding `O=C(NNC(=O)c1cc2ccsc2[nH]1)c1cc2cc(Cl)ccc2[nH]1` [Example 1-125, 6H-thieno[2,3-b]pyrrole-5-carboxylic acid 2-(5-chloro-1H-indole-2-carbonyl)hydrazide], the IC50 in experiment [1] was 190 nM.

As to `O=C(NNC(=O)c1cccs1)c1cc2cc(F)ccc2[nH]1` [Example 1-11, thiophene-2-carboxylic acid 2-(5-fluoro-1H-indole-2-carbonyl)hydrazide], the IC50 in experiment [1] is 72 nM.

Take `Nc1ccccc1C(=O)NNC(=O)c1cc2ccc(Cl)cc2[nH]1` [Example 1-39, 2-aminobenzoic acid 2-(6-chloro-1H-indole-2-carbonyl)hydrazide]: the IC50 in experiment [1] was 810 nM.

For the molecule `N=C(NNC(=O)c1cc2cc(Cl)ccc2[nH]1)c1cnccn1` [Example 1-140, 5-chloro-1H-indole-2-carboxylic acid 2-(imino-(pyrazin-2-yl)-methyl)hydrazide], the IC50 in experiment [1] came to 180 nM.

In the case of `Cc1ccccc1N1CCC(=O)N(NC(=O)c2cc3cc(Cl)ccc3[nH]2)C1=O` [Example 3-15, 5-chloro-1H-indole-2-carboxylic acid (2,4-dioxo-1-(o-tolyl)perhydropyrimidin-3-yl)amide], the IC50 in experiment [1] worked out at 150 nM.

`O=C(NNC(=O)c1cc2cc(Cl)ccc2[nH]1)Nc1ccccc1Cl` [Example 5-9, 5-chloro-1H-indole-2-carboxylic acid 2-((2-chloroanilino)carbonyl)hydrazide]: in experiment [1], the IC50 was over 100 nM.

Regarding `N#Cc1ccc(C(=O)NNC(=O)c2cc3cc(Cl)ccc3[nH]2)cc1` [Example 1-58, 4-cyanobenzoic acid 2-(5-chloro-1H-indole-2-carbonyl)hydrazide], the IC50 in experiment [1] was over 100 nM.

As for `O=C(NN1C(=O)CCN(c2ccc(F)cc2)C1=O)c1cc2cc(Cl)ccc2[nH]1` [Example 3-5, 5-chloro-1H-indole-2-carboxylic acid (1-(4-fluorophenyl)-2,4-dioxoperhydropyrimidin-3-yl)amide], the IC50 in experiment [1] came out at 190 nM.

(Values after patent publication US20050054696A1, “Indole compounds and medicinal use thereof” (priority 2001, published 2005).)
